In article PMC7997574, “Lead Optimization of Benzoxazolone Carboxamides as Orally Bioavailable and CNS Penetrant Acid Ceramidase Inhibitors” (Journal of Medicinal Chemistry, 2020):
pIC50: −log10 of the molar value. Read-outs that look alike come from different tables or passages of the source.

What was measured:
[1] = Plasma and brain concentrations in Twitcher mice; assay type: in vivo; conditions: both sexes, Twitcher (GALC–/−), mouse, ip, 1 h after last dose (day 20)
Protocol: 4L;C* mice (C57BL/6 J/129SvEV) were randomly assigned to three treatment groups (N = 4–8 with mixed males and females) and dosed once a day i.p. with 90 or 30 mg kg^–1 of 22m or vehicle. Treatment started at 5 days of age for a duration of 14 days. The application volume was set to 10 μL per gram of body weight, and dosage was adjusted accordingly. Animals of all groups were sacrificed 1 h after the last dose, and the brain tissues and plasma were collected. The left brain containing cortex, cerebella, thalamus, and brainstem was analyzed for SphL levels by MS. Data were analyzed using the Student t test. The right brain containing cortex, cerebella, thalamus, and brainstem and plasma were analyzed for drug levels of 22m. All mice were housed under pathogen-free conditions in the animal facility, and animal experiment was performed according to the IACUC approved protocol (2018-0056) at Cincinnati Children’s Hospital Research Foundation. Wild Type (WT) (GALC+/+) and Twitcher (Twi) (GALC–/−) mice were genotyped by PCR as previously described.[58] Twi mice were randomly assigned to three treatment groups (N = 3 males + N = 3 females for each group) and dosed once a day i.p. with 90 or 30 mg kg^–122m or vehicle for a duration of 20 days. Treatment started at 10 days of age. The application volume was set to 10 μL per gram of body weight, and dosage was adjusted accordingly. Two groups (N = 3 males + N = 3 females for each group) of WT controls treated with vehicle or high dose (90 mg kg^–1) of 22m were also included in the study. Animals of all groups were sacrificed 1 h after the last dose, and the brain tissues and plasma were collected. The left brain containing cortex, cerebella, thalamus, and brainstem was analyzed for SphL levels by MS. Data were analyzed using the Student t test. The right brain containing cortex, cerebella, thalamus, and brainstem and plasma were analyzed for drug levels of 22m. All animal work in this study was performed in accordance with approved animal protocols from the Animal Care and Use Committee at the University of Illinois at Chicago.

[2] = target: T1, human N-acylethanolamine acid amidase (hNAAA) (Homo sapiens, UniProt Q02083); assay: Fluorogenic hNAAA assay; assay type: biochemical
T1 construct: expressed in transfected cells
T1 sequence (Q02083 29-359): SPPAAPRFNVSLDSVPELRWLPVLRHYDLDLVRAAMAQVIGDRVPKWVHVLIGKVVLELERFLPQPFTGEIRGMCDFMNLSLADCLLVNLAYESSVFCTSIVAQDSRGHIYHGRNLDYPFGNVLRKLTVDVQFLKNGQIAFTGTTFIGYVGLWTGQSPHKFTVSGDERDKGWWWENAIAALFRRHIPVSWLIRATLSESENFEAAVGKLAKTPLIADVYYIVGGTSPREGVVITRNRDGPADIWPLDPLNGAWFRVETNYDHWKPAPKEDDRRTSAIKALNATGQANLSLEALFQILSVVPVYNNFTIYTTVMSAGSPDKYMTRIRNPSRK
Protocol: HEK-293 cells stably transfected with the hNAAA coding sequence cloned from a human spleen cDNA library (catalog no. 639124, Clontech, Mountain View, CA, USA) were used as the enzyme source. Cells were grown in Dulbecco’s modified Eagle medium (DMEM) containing 10% FBS, 1% glutamine, 1 mM sodium pyruvate, and 500 μg mL^–1 G418. Cells were harvested, and pellets were stored at −80 °C until lysosomal-enriched lysate preparation. Cells were suspended in 20 mM Tris HCl (pH 7.4) with 0.32 M sucrose, sonicated, and centrifuged at 800 × g for 30 min at 4 °C. Supernatants were then ultracentrifuged at 12000 × g for 30 min at 4 °C. […] The suspension was finally ultracentrifuged at 105000 × g for 1 h at 4 °C, supernatants were collected, protein concentration was measured, and samples were aliquoted and stored at −80 °C until use.
The assay was run in 96-well microplates (Black OptiPlate-96F; PerkinElmer, Massachusetts, USA) in a total reaction volume of 200 μL. hNAAA protein preparation (4.0 μg) was preincubated for 30 min with various concentrations of test compounds or vehicle control (DMSO 5%) in 100 mM citrate/phosphate buffer (pH 4.5) containing 3.0 mM DTT, 0.1% NP40 0.1%, 0.05% BSA, 150 mM NaCl. […] Fluorescence was measured with an EnVision 2014 Multilabel Reader (PerkinElmer, Massachusetts, USA) using an excitation wavelength of 355 nm and emission of 460 nm. […]

SMILES: CC(C)CNC(=O)n1c(=O)oc2cc(C3CCN(C)CC3)ccc21 [22m, N-Isobutyl-6-(1-methyl-4-piperidyl)-2-oxo-1,3-benzoxazole-3-carboxamide]
- concentration at 1 h ([1]; brain, 30 mg kg^–1, Twitcher mice, 30 mg kg^–1 i.p., read-out: Cb (μM) brain concentration): 114 µM
- concentration at 1 h ([1]; brain, 30 mg kg^–1, Twitcher mice, 30 mg kg^–1 i.p., read-out: Cb, u (μM) brain unbounded concentration): 0.8 µM
- concentration at 1 h ([1]; brain, 90 mg kg^–1, Twitcher mice, 90 mg kg^–1 i.p., read-out: Cb (μM) brain concentration): 308 µM
- concentration at 1 h ([1]; brain, 90 mg kg^–1, Twitcher mice, 90 mg kg^–1 i.p., read-out: Cb, u (μM) brain unbounded concentration): 2.15 µM
- concentration at 1 h ([1]; plasma, 30 mg kg^–1, Twitcher mice, 30 mg kg^–1 i.p., read-out: Cp (μM) plasma concentration): 0.85 µM
- concentration at 1 h ([1]; plasma, 30 mg kg^–1, Twitcher mice, 30 mg kg^–1 i.p., read-out: Cp,u (μM) plasma unbounded concentration): 0.11 µM
- concentration at 1 h ([1]; plasma, 90 mg kg^–1, Twitcher mice, 90 mg kg^–1 i.p., read-out: Cp (μM) plasma concentration): 3.85 µM
- concentration at 1 h ([1]; plasma, 90 mg kg^–1, Twitcher mice, 90 mg kg^–1 i.p., read-out: Cp,u (μM) plasma unbounded concentration): 0.52 µM
- pIC50 [2]: 5.10
